Experimental data: US7253192B2, “Phenyl derivatives comprising an acetylene group” (Hoffmann-La Roche Inc., priority 2004, dated 2007)

Tests used:
[1] = target: T1, PPARα (Homo sapiens, UniProt Q07869); assay: Radioligand binding assay (SPA), PPARα receptor binding; details: GST-PPARα-LBD fusion protein, scintillation proximity radioligand binding
T1 construct: PPARα (aa 167 to 469); made in house; host or cells: E. coli BL21 (pLysS)
T1 sequence (Q07869 167-468 limits assumed): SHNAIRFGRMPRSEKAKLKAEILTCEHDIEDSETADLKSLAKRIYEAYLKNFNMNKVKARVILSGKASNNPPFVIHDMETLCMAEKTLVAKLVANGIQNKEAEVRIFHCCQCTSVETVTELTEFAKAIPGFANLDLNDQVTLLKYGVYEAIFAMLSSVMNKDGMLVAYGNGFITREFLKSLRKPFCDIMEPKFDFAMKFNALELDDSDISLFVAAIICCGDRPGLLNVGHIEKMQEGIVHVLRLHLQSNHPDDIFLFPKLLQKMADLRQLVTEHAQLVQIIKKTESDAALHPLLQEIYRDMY
Description: (§1) Full-length cDNA clones for humans PPARδ and PPARα and mouse PPARγ were obtained by RT-PCR from human adipose and mouse liver cRNA, respectively, cloned into plasmid vectors and verified by DNA sequencing. Bacterial and mammalian expression vectors were constructed to produce glutathione-s-transferase (GST) and Gal4 DNA binding domain proteins fused to the ligand binding domains (LBD) of PPARδ (aa 139 to 442), PPARγ (aa 174 to 476) and PPARα (aa 167 to 469). To accomplish this, the portions of the cloned sequences encoding the LBDs were amplified from the full-length clones by PCR and then subcloned into the plasmid vectors. Final clones were verified by DNA sequence analysis.
(§2) Induction, expression, and purification of GST-LBD fusion proteins were performed in E. coli strain BL21 (pLysS) cells by standard methods (Ref: Current Protocols in Molecular Biology, Wiley Press, edited by Ausubel et al.).
PPARα receptor binding was assayed in TKE50 (50 mM Tris-HCl, pH 8, 50 mM KCl, 2 mM EDTA, 0.1 mg/ml fatty acid-free BSA and 10 mM DTT). For each 96 well reaction an 140 ng equivalent of GST-PPARα-LBD fusion protein was bound to 10 μg SPA beads (PharmaciaAmersham) in a final volume of 50 μl by shaking. The resulting slurry was incubated for 1 h at RT and centrifuged for 2 min at 1300 g. The supernatant containing unbound protein was removed and the semidry pellet containing the receptor-coated beads was resolved in 50 μl of TKE. For radioligand binding e.g. 10000 dpm of 2(S)-(2-benzoyl-phenylamino)-3-{4-[1,1-ditritio-2-(5-methyl-2-phenyl-oxazol-4-yl)-ethoxy]-phenyl}-propionic acid or 2,3-ditritio-2(S)-methoxy-3-{4-[2-(5-methyl-2-phenyl-oxazol-4-yl)-ethoxy]-benzo [b]thiophen-7-yl}-propionic acid in 50 ul were added, the reaction incubated at RT for 1 h and scintillation proximity counting performed. All binding assays were performed in 96 well plates and the amount of bound ligand measured on a Packard TopCount using OptiPlates (Packard). Nonspecific binding was determined in the presence of 10^−4 M unlabelled compound. […]

[2] = target: T2, PPARδ (Homo sapiens, UniProt Q03181); assay: Radioligand binding assay (SPA), PPARδ receptor binding; details: GST-PPARδ-LBD fusion protein, scintillation proximity radioligand binding
T2 construct: PPARδ (aa 139 to 442); made in house; host or cells: E. coli BL21 (pLysS)
T2 sequence (Q03181 139-441 limits assumed): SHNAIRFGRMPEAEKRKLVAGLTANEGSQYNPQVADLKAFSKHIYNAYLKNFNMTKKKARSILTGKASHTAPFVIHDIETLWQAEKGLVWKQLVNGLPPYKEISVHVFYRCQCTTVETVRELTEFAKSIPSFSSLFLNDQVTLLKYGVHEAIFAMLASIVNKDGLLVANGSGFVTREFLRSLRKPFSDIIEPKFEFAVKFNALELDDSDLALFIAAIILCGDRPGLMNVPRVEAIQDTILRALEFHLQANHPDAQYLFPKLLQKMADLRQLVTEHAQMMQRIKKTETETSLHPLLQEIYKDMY
Description: as §1, §2
PPARδ receptor binding was assayed in HNM10 (50 mM Hepes, pH 7.4, 10 mM NaCl, 5 mM MgCl2, 0.15 mg/ml fatty acid-free BSA and 15 mM DTT). For each 96 well reaction a 500 ng equivalent of GST-PPARδ-LBD fusion protein and radioligand, e.g. 20000 dpm {2-methyl-4-[4-methyl-2-(4-trifluoromethyl-phenyl)-thiazol-5-yl-ditritiomethylsulfanyl]-phenoxy}-acetic acid, was bound to 10 μg SPA beads (PharmaciaAmersham) in a final volume of 50 μl by shaking. The resulting slurry was incubated for 1 h at RT and centrifuged for 2 min at 1300 g. The supernatant containing unbound protein was removed and the semidry pellet containing the receptor-coated beads was resuspended in 50 μl of HNM. Radioligand was added and the reaction incubated at RT for 1 h and scintillation proximity counting performed in the presence of test compounds was determined. All binding assays were performed in 96 well plates and the amount of bound ligand was measured on a Packard TopCount using OptiPlates (Packard). Dose response curves were done in triplicates within a range of concentration from 10^−10 M to 10^−4 M.

[3] = target: T3, PPARγ (Mus musculus, UniProt P37238); assay: Radioligand binding assay (SPA), PPARγ receptor binding; details: GST-PPARγ-LBD fusion protein, scintillation proximity radioligand binding
T3 construct: PPARγ (aa 174 to 476); made in house; host or cells: E. coli BL21 (pLysS)
T3 sequence (P37238 204-505): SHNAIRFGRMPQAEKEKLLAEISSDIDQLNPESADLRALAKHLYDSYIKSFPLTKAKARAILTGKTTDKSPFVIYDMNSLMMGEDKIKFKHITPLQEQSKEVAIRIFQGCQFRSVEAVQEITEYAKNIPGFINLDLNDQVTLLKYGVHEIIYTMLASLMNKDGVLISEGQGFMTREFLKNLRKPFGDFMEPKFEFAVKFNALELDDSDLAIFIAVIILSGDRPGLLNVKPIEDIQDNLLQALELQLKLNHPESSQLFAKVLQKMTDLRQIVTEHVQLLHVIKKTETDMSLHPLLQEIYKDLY
Description: as §1, §2
PPARγ receptor binding was assayed in TKE50 (50 mM Tris-HCl, pH 8, 50 mM KCl, 2 mM EDTA, 0.1 mg/ml fatty acid-free BSA and 10 mM DTT). For each 96 well reaction an 140 ng equivalent of GST-PPARγ-LBD fusion protein was bound to 10 μg SPA beads (PharmaciaAmersham) in a final volume of 50 μl by shaking. The resulting slurry was incubated for 1 h at RT and centrifuged for 2 min at 1300 g. The supernatant containing unbound protein was removed and the semidry pellet containing the receptor-coated beads was resolved in 50 ul of TKE. For radioligand binding e.g. 10000 dpm 2(S)-(2-benzoyl-phenylamino)-3-{4-[1,1-ditritio-2-(5-methyl-2-phenyl-oxazol-4-yl)-ethoxy]-phenyl}-propionic acid in 50 μl were added, the reaction incubated at RT for 1 h and scintillation proximity counting performed. All binding assays were performed in 96 well plates and the amount of bound ligand measured on a Packard TopCount using OptiPlates (Packard). Nonspecific binding was determined in the presence of 10^−4 M unlabelled compound. Dose response curves were done in triplicates within a range of concentration from 10^−10 M to 10^−4 M.

| Structure (SMILES) | melting point | IC50 [1] | IC50 [2] | IC50 [3] |
| --- | --- | --- | --- | --- |
| Cc1cc(SCC#Cc2ccc(Cl)cc2)ccc1OCC(=O)O [Example 8, {4-[3-(4-Chloro-phenyl)-prop-2-ynylsulfanyl]-2-methyl-phenoxy}-acetic acid] | 106 to 108 °C |  |  |  |
| Cc1cc(SCC#Cc2ccc(C(F)(F)F)cc2)ccc1OCC(=O)O [Example 5, {2-Methyl-4-[3-(4-trifluoromethyl-phenyl)-prop-2-ynylsulfanyl]-phenoxy}-acetic acid] | 130 to 131 °C |  |  |  |
| Cc1cc(SCCCC#Cc2ccc(OC(F)(F)F)cc2)ccc1OCC(=O)O [Example 4, {2-Methyl-4-[5-(4-trifluoromethoxy-phenyl)-pent-4-ynylsulfanyl]-phenoxy}-acetic acid] | 94 to 95 °C | 0.014 µM | 0.039 µM | > 10 µM |
| Cc1cc(SCC#Cc2cccc(C(F)(F)F)c2)ccc1OCC(=O)O [Example 6, {2-Methyl-4-[3-(3-trifluoromethyl-phenyl)-prop-2-ynylsulfanyl]-phenoxy}-acetic acid] | 81 to 82 °C |  |  |  |
| Cc1cc(SCC#Cc2ccccc2)ccc1OCC(=O)O [Example 10, [2-Methyl-4-(3-phenyl-prop-2-ynylsulfanyl)-phenoxy]-acetic acid] | 90 to 92 °C |  |  |  |
| Cc1cc(SCC#Cc2ccccc2C(F)(F)F)ccc1OCC(=O)O [Example 7, {2-Methyl-4-[3-(2-trifluoromethyl-phenyl)-prop-2-ynylsulfanyl]-phenoxy}-acetic acid] | 95 to 97 °C |  |  |  |
| COc1ccc(C#CCSc2ccc(OCC(=O)O)c(C)c2)cc1 [Example 9, {4-[3-(4-Methoxy-phenyl)-prop-2-ynylsulfanyl]-2-methyl-phenoxy}-acetic acid] | 143 to 144 °C |  |  |  |
| Cc1cc(SCCC#Cc2ccc(C(F)(F)F)cc2)ccc1OCC(=O)O [Example 12, {2-Methyl-4-[4-(4-trifluoromethyl-phenyl)-but-3-ynylsulfanyl]-phenoxy}-acetic acid] | 129 to 130 °C |  |  |  |

Second part, the compound after the results:

| melting point | IC50 [1] | IC50 [2] | IC50 [3] | Structure (SMILES) |
| --- | --- | --- | --- | --- |
| 95 to 97 °C (dec.) |  |  |  | Cc1cc(OCCCC#Cc2cnc(C(F)(F)F)nc2)ccc1OC(C)(C)C(=O)O [Example 28, 2-Methyl-2-{2-methyl-4-[5-(2-trifluoromethyl-pyrimidin-5-yl)-pent-4-ynyloxy]-phenoxy}-propionic acid] |
| 119 to 120 °C (dec.) |  |  |  | Cc1cc(OCCCC#Cc2ccc(Cl)cc2)ccc1OC(C)(C)C(=O)O [Example 15, 2-{4-[5-(4-Chloro-phenyl)-pent-4-ynyloxy]-2-methyl-phenoxy}-2-methyl-propionic acid] |
| 90 to 91 °C (dec.) | 0.021 µM | 0.12 µM | > 10 µM | Cc1cc(OCCCC#Cc2ccc(OC(F)(F)F)cc2)ccc1OC(C)(C)C(=O)O [Example 13, 2-Methyl-2-{2-methyl-4-[5-(4-trifluoromethoxy-phenyl)-pent-4-ynyloxy]-phenoxy}-propionic acid] |
| 124.6 to 126.7 °C |  |  |  | Cc1cc(OCCCC#Cc2ccc(OC(F)(F)F)cc2)ccc1OCC(=O)O [Example 20, {2-Methyl-4-[5-(4-trifluoromethoxy-phenyl)-pent-4-ynyloxy]-phenoxy}-acetic acid] |
| 116 to 118 °C |  |  |  | Cc1c(OC(C)(C)C(=O)O)ccc(OCCCC#Cc2ccc(OC(F)(F)F)cc2)c1F [Example 33, 2-{3-Fluoro-2-methyl-4-[5-(4-trifluoromethoxy-phenyl)-pent-4-ynyloxy]-phenoxy}-2-methyl-propionic acid] |
| 114 to 115 °C (dec.) |  |  |  | Cc1cc(OCCCC#Cc2ccc(C(F)(F)F)cc2)ccc1OC(C)(C)C(=O)O [Example 14, 2-Methyl-2-{2-methyl-4-[5-(4-trifluoromethyl-phenyl)-pent-4-ynyloxy]-phenoxy}-propionic acid] |
| 68 to 69 °C (dec.) |  |  |  | Cc1cc(OCCC#Cc2ccc(Cl)cc2)ccc1OC(C)(C)C(=O)O [Example 18, 2-{4-[4-(4-Chloro-phenyl)-but-3-ynyloxy]-2-methyl-phenoxy}-2-methyl-propionic acid] |
| 106 to 107 °C (dec.) |  |  |  | Cc1cc(OCCCC#Cc2ccc(Cl)c(F)c2)ccc1OC(C)(C)C(=O)O [Example 27, 2-{4-[5-(4-Chloro-3-fluoro-phenyl)-pent-4-ynyloxy]-2-methyl-phenoxy}-2-methyl-propionic acid] |
| 65.5 to 68.5 °C |  |  |  | CC(C)(Oc1ccc(OCCCC#Cc2ccc(OC(F)(F)F)cc2)c(F)c1)C(=O)O [Example 32, 2-{3-Fluoro-4-[5-(4-trifluoromethoxy-phenyl)-pent-4-ynyloxy]-phenoxy}-2-methyl-propionic acid] |
| 127 to 128 °C (dec.) |  |  |  | CC(C)(Oc1ccc(CNC(=O)CCC#Cc2ccc(OC(F)(F)F)cc2)cc1)C(=O)O [Example 29, 2-Methyl-2-(4-{[5-(4-trifluoromethoxy-phenyl)-pent-4-ynoylamino]-methyl}-phenoxy)-propionic acid] |
| 62 to 71 °C (dec.) | 0.018 µM | 0.203 µM | > 10 µM | Cc1cc(OCCC#Cc2ccc(OC(F)(F)F)cc2)ccc1OC(C)(C)C(=O)O [Example 17, 2-Methyl-2-{2-methyl-4-[4-(4-trifluoromethoxy-phenyl)-but-3-ynyloxy]-phenoxy}-propionic acid] |
